Source: patent US8318899B2, “Lytic domain fusion constructs and methods of making and using same” (Board of Supervisors of Louisiana State University and …, priority 2008, dated 2012)
Entries after “also recorded” stand apart in the source; their conditions may differ.

Legend:
MDA-MB435S xenograft = assay: MDA-MB435S xenograft, multiple dose regimen; format: in vivo, Nu/Nu mice; details: 0.002 and 0.2 mg/kg, multiple i.v. injections
Description: In order to determine the minimal effective dose necessary to reduce MDA-MB435S xenograft weights in a multiple dose regimen, Nu/Nu female mice, outbred strain, age 8 weeks (Charles River), were injected (s.c.) into the interscapular region with a MDA-MB435S (passage #253)/Matrigel suspension (2×10^6 cells/mouse) as previously described above. […] The doses were given as a single bolus intravenous injection via lateral tail vein on days 15, 16, 17, 20, 21, 22, 23, 27, 28, 29, 30, 33, 34, 35, 36, 37, 38, 40, 41, 42 after tumor cell inoculation. Saline injections served as control groups.
Each treatment group consisted of 16 mice. During the entire study tumor volumes were recorded twice weekly. Final necropsy was conducted on day 45 after tumor cell injection. […] due to occlusion of the tail vein in most mice. At study endpoint body weight, tumor weights were determined and fixed in phosphate buffered 10% formalin.

[1] = tested on: MDA-MB-435S.luc xenograft; assay: MDA-MB-435S.luc xenograft, LHRH fusion constructs; format: in vivo, Nu/Nu mice
Description: For LHRH fusion constructs, the mouse xenograft model for breast cancer was used. In brief, Nu/Nu female mice, outbred strain, age 5 weeks (Charles River) were injected subcutaneously with a MDA-MB-435S.luc/Matrigel suspension (1×10^6 cells). Treatment was started on day 21 after tumor cell injection and continued on day 26 and 29. The doses for weekly fusion construct injections were 2, 0.2 and 0.02 mg/kg body weight, given as a bolus single injection. All mice were necropsied 34 days after tumor cell injection-baseline values for tumor weights were obtained by sacrificing 8 mice at treatment start. […] Tumor weights were recorded at necropsy, part of the tumors were frozen at −80° C. for luciferase assay determination.
Characteristics of tumors at necropsy are summarized in FIG. 10: (A) tumor weight, (B) changes of tumor weights compared to baseline, (C) total number of live tumor cells, (D) changes of total live tumor cells compared to baseline, and (E) body weights at baseline and necropsy. Viability of tumor cells was determined at the end of the study when tumors were measured for luciferase activity. Treatment efficacy was calculated as difference between measurements at the beginning of treatment compared to the measurement at the end of study (FIGS. 10B and 10D).

## KFAKFAKKFAKFAKKFAKQHWSYGLRPG [Phor18-LHRH]
MDA-MB435S xenograft
  tumor response: tumor regression at both dose levels; also recorded: eradication of tumor cells
[1]; 0.02, 0.2, 2 mg/kg weekly
  tumor volume during treatment / 30 days: smallest tumor volumes
[1]; mouse, in vivo
  overall efficacy in reducing tumor weight and live tumor cells (vs other constructs / reference Phor21-βCG-ala): Equally effective
